Results: the C3SDB collision cross section collection
Values joined by “and” are separate entries in the source; they are usually repeats but may differ in a detail not shown here. Equal entries are not always repeated.

Experiments:
[1] = instrument: TW, calibrated with polyalanine
[2] = instrument: TW, calibrated with phosphatidylcholines (ESI+) and phosphatidylethanolamines (ESI-)
[3] = [M-H]-; instrument: DT; stepped-field
[4] = instrument: DT, single field, calibrated with Agilent tune mix (Agilent)
[5] = instrument: TW, calibrated with phosphatidylcholines (ESI+) and phosphatidylethanolamines (ESI-); remark: listed apart in the source

With `COc1cc2c(c3oc(=O)c4c(c13)CCC4=O)[C@@H]1CCO[C@@H]1O2` [Aflatoxin B2] the “collision cross section (N2)” value ([1]; [M+H]+) was 162 Å², the “collision cross section (N2)” value ([1]; [M+K]+) was 181.4 Å² and the “collision cross section (N2)” value ([1]; [M+Na]+) was 176.8 Å².

For `Cc1cc(O)cc2oc(=O)c3c(O)cc(O)cc3c12` [Alternariol], the “collision cross section (N2)” value ([1]; [M-H]-) was 146 Å².

In the case of `CC(C)[C@H]1OC(=O)[C@H](Cc2ccccc2)N(C)C(=O)[C@@H](C(C)C)OC(=O)[C@H](Cc2ccccc2)N(C)C(=O)[C@@H](C(C)C)OC(=O)[C@H](Cc2ccccc2)N(C)C1=O` [Beauvericin], the “collision cross section (N2)” value ([1]; [M+H]+) is reported as 283.8 Å², the “collision cross section (N2)” value ([1]; [M+K]+) is reported as 290.3 Å² and the “collision cross section (N2)” value ([1]; [M+NH4]+) is reported as 269 Å². The “collision cross section (N2)” value ([1]; [M+Na]+) was 287.4 Å².

In the case of `CCCCCCCCCCCCC=CCC(=O)OC[C@H](CO[C@@H]1O[C@H](CO[C@H]2O[C@H](CO)[C@H](O)C(O)C2O)[C@H](O)C(O)C1O)OC(=O)CC=CCCCCCCCCCCCC` (some centres not stated) [DGDG(32:2)], the “collision cross section (N2)” value ([2]; [M+NH4]+) is reported as 302.2 Å² and the “collision cross section (N2)” value ([2]; [M+Na]+) is reported as 298 Å².

With `CCCCCCCCCCCCCCCCC(=O)OC[C@H](CO[C@@H]1O[C@H](CO[C@H]2O[C@H](CO)[C@H](O)C(O)C2O)[C@H](O)C(O)C1O)OC(=O)CCCCCCCCCCCCCCCC` (some centres not stated) [DGDG(34:0)] the “collision cross section (N2)” value ([2]; [M+NH4]+) was 314.2 Å² and the “collision cross section (N2)” value ([2]; [M+Na]+) was 311.8 Å².

For `CCCCCCCCCCCCCCC=CCC(=O)OC[C@H](CO[C@@H]1O[C@H](CO[C@H]2O[C@H](CO)[C@H](O)C(O)C2O)[C@H](O)C(O)C1O)OC(=O)CC=CCCCCCCCCCCCCCC` (some centres not stated) [DGDG(36:2)], the “collision cross section (N2)” value ([2]; [M+K]+) was 315.3 Å², the “collision cross section (N2)” value ([2]; [M+NH4]+) was 315.2 Å² and the “collision cross section (N2)” value ([2]; [M+Na]+) was 312.4 Å².

In the case of `CC[C@H](C)[C@H]1C(=O)O[C@H](C(C)C)C(=O)N(C)[C@@H]([C@@H](C)CC)C(=O)O[C@H](C(C)C)C(=O)N(C)[C@@H](C(C)C)C(=O)O[C@H](C(C)C)C(=O)N1C` [Enniatin A1], the “collision cross section (N2)” value ([1]; [M+H]+) is reported as 252.2 Å², the “collision cross section (N2)” value ([1]; [M+K]+) is reported as 257.9 Å² and the “collision cross section (N2)” value ([1]; [M+NH4]+) is reported as 259 Å². The “collision cross section (N2)” value ([1]; [M+Na]+) was 258 Å².

In the case of `CC[C@H](C)[C@H]1C(=O)O[C@H](C(C)C)C(=O)N(C)[C@@H]([C@@H](C)CC)C(=O)O[C@H](C(C)C)C(=O)N(C)[C@@H]([C@@H](C)CC)C(=O)O[C@H](C(C)C)C(=O)N1C` [Enniatin A], the “collision cross section (N2)” value ([1]; [M+H]+) is reported as 257.9 Å², the “collision cross section (N2)” value ([1]; [M+K]+) is reported as 264.7 Å² and the “collision cross section (N2)” value ([1]; [M+NH4]+) is reported as 264 Å². For the same compound, the “collision cross section (N2)” value ([1]; [M+Na]+) was 262.4 Å².

In the case of `CCCC[C@@H](C)[C@@H](OC(=O)C[C@@H](CC(=O)O)C(=O)O)[C@H](C[C@@H](C)C[C@H](O)CCCC[C@@H](O)C[C@H](O)[C@H](C)N)OC(=O)C[C@@H](CC(=O)O)C(=O)O` [Fumonisin B1], the “collision cross section (N2)” value ([1]; [M+H]+) is reported as 258 Å², the “collision cross section (N2)” value ([1]; [M+K]+) is reported as 269 Å² and the “collision cross section (N2)” value ([1]; [M+Na]+) is reported as 264.4 Å².

With `CCCC[C@@H](C)[C@@H](OC(=O)CC(CC(=O)O)C(=O)O)[C@H](C[C@@H](C)C[C@H](O)CCCCCC[C@@H](O)[C@H](C)N)OC(=O)CC(CC(=O)O)C(=O)O` (some centres not stated) [Fumonisin B3] the “collision cross section (N2)” value ([1]; [M+H]+) was 258 Å², the “collision cross section (N2)” value ([1]; [M+K]+) was 264.5 Å² and the “collision cross section (N2)” value ([1]; [M+Na]+) was 259.2 Å².

In the case of `CCCC[C@@H](C)[C@@H](OC(=O)C[C@@H](CC(=O)O)C(=O)O)[C@H](C[C@@H](C)CCCCCCCC[C@H](O)[C@H](C)N)OC(=O)C[C@@H](CC(=O)O)C(=O)O` [Fumonisin B4], the “collision cross section (N2)” value ([1]; [M+H]+) is reported as 255 Å², the “collision cross section (N2)” value ([1]; [M+K]+) is reported as 264.6 Å² and the “collision cross section (N2)” value ([1]; [M+Na]+) is reported as 260.4 Å².

In the case of `CCCCCCCCCCCCCCCCCC(=O)OC(COC(=O)CCCCCCCCCCCCCC)COP(=O)([O-])OCC(O)COC(=O)C(N)CCCC[NH3+]` (configuration not stated) [LysPG(33:0)], the “collision cross section (N2)” value ([2]; [M+H]+) is reported as 299.8 Å².

For `CCCCCC/C=C/CCCCCCCCCC(=O)OCC(COP(=O)([O-])OCC(O)COC(=O)C(N)CCCC[NH3+])OC(=O)CCCCCCCCCCCCCCC` (configuration not stated) [LysPG(34:1)], the “collision cross section (N2)” value ([2]; [M+H]+) was 299.6 Å².

With `CCCCCC/C=C\CCCCCCCCCC(=O)OCC(COP(=O)([O-])OCC(O)COC(=O)C(N)CCCC[NH3+])OC(=O)CCCCCCCC/C=C\CCCCCC` (configuration not stated) [LysPG(35:2)] the “collision cross section (N2)” value ([2]; [M+H]+) was 300.8 Å².

In the case of `CCCCCCCCCCCCCCCCCCCCC(=O)OC(COC(=O)CCCCCCCCCCCCCC)COP(=O)([O-])OCC(O)COC(=O)C(N)CCCC[NH3+]` (configuration not stated) [LysPG(36:0)], the “collision cross section (N2)” value ([2]; [M+H]+) is reported as 308.7 Å².

With `CCCCCC/C=C\CCCCCCCCCC(=O)OCC(COP(=O)([O-])OCC(O)COC(=O)C(N)CCCC[NH3+])OC(=O)CCCCCCCCC/C=C\CCCCCC` (configuration not stated) [LysPG(36:2)] the “collision cross section (N2)” value ([2]; [M+H]+) was 302.8 Å².

With `CC/C=C\C/C=C\C/C=C\CCCCCCCC(=O)OC[C@H](CO[C@@H]1O[C@H](CO)[C@H](O)C(O)C1O)OC(=O)CCCCC/C=C\C/C=C\C/C=C\CC` (some centres not stated) [MGDG(16:3/18:3)] the “collision cross section (N2)” value ([2]; [M+CH3COO]-) was 280.3 Å², the “collision cross section (N2)” value ([2]; [M+Cl]-) was 273.7 Å² and the “collision cross section (N2)” value ([2]; [M+K]+) was 273.6 Å². The “collision cross section (N2)” value ([2]; [M+Na]+) was 273.1 Å² and the “collision cross section (N2)” value ([2]; [M-H]-) was 269.9 Å².

With `C=CC(C)(C)[C@@]12C=C(O)C(=O)N3/C(=C/c4cnc[nH]4)C(=O)N[C@]31N(OC)c1ccccc12` [Meleagrin] the “collision cross section (N2)” value ([1]; [M+H]+) was 201 Å².

With `COc1c(C)c2c(c(O)c1C/C=C(\C)CCC(=O)O)C(=O)OC2` [Mycophenolic acid] the “collision cross section (N2)” value ([1]; [M+NH4]+) was 176 Å².

With `CCCCCCCCCC/C=C\CCCCCCCCCC(=O)O[C@H](COC(=O)CCCCCCCCCCC)COP(=O)(O)O` [PA(16:0/18:1)] the “collision cross section (N2)” value ([2]; [M-H]-) was 256.3 Å² and the “collision cross section (N2)” value [3] was 259.2 Å².

For `CCCCCCCCCCCCCCCCCC(=O)O[C@H](COC(=O)CCCCCCCCCCCC)COP(=O)(O)O` [PA(31:0)], the “collision cross section (N2)” value ([2]; [M-H]-) was 248.2 Å².

With `CCCC/C=C\CCCCCCCC(=O)O[C@H](COC(=O)CCCCCCCCCCCCC)COP(=O)(O)OC[C@@H](O)CO` [PG(28:1)] the “collision cross section (N2)” value ([2]; [M-H]-) was 251.2 Å².

In the case of `CCCCCCCC/C=C\CCCCCCCCCC(=O)O[C@H](COC(=O)CCCCCCCCCCC)COP(=O)(O)OC[C@@H](O)CO` [PG(32:1)], the “collision cross section (N2)” value ([2]; [M-H]-) is reported as 263.3 Å², the “collision cross section (N2)” value ([4]; [M-H]-) is reported as 263.3 Å² and the “collision cross section (N2)” value [3] is reported as 270.4 Å². The “collision cross section (N2)” value ([5]; [M+Na]+) was 274.1 Å² and the “collision cross section (N2)” value ([5]; [M-H]-) was 262.5 Å².

In the case of `CCCCCCCCCCCCCCCCCCCC(=O)OC[C@H](COP(=O)(O)OC[C@@H](O)CO)OC(=O)CCCCCCCCCCCCC` [PG(34:0)], the “collision cross section (N2)” value ([2]; [M-H]-) is reported as 270.8 Å², the “collision cross section (N2)” value [3] is reported as 277.6 Å² and the “collision cross section (N2)” value ([5]; [M+Na]+) is reported as 282.2 Å². The “collision cross section (N2)” value ([5]; [M-H]-) was 269 Å².

With `CCCCCCCCCC/C=C\CCCCCCCCCC(=O)O[C@H](COC(=O)CCCCCCCCCCC)COP(=O)(O)OC[C@@H](O)CO` [PG(34:1)] the “collision cross section (N2)” value ([2]; [M-H]-) was 269.9 Å², the “collision cross section (N2)” value ([4]; [M+H]+) was 286.8 Å² and the “collision cross section (N2)” value ([4]; [M+NH4]+) was 287.3 Å². For the same compound, the “collision cross section (N2)” value ([4]; [M-H]-) was 270.2 Å², the “collision cross section (N2)” value ([5]; [M+Na]+) was 281.1 Å² and the “collision cross section (N2)” value ([5]; [M-H]-) was 268.9 Å².

For `CCCCCCCCCCCCCCCCCCCCC(=O)OC[C@H](COP(=O)(O)OC[C@@H](O)CO)OC(=O)CCCCCCCCCCCCCC` [PG(36:0)], the “collision cross section (N2)” value ([2]; [M-H]-) was 277.9 Å².

In the case of `CCCC/C=C\CCCCCCCC(=O)OC[C@H](COP(=O)(O)OC[C@@H](O)CO)OC(=O)CCCCCCCCC/C=C\CCCCCCCCCC` [PG(36:2)], the “collision cross section (N2)” value ([2]; [M-H]-) is reported as 274.9 Å², the “collision cross section (N2)” value ([4]; [M+H]+) is reported as 288.9 Å² and the “collision cross section (N2)” value ([4]; [M+Na]+) is reported as 286 Å². For the same compound, the “collision cross section (N2)” value [3] was 282.3 Å² and 281.9 Å², the “collision cross section (N2)” value ([5]; [M+Na]+) was 284.7 Å² and the “collision cross section (N2)” value ([5]; [M-H]-) was 274.3 Å².

In the case of `CCCC/C=C\CCCCCCCC(=O)O[C@H](CO/C=C\CCCCCCCCCCCCC)COP(=O)(O)OC[C@@H](O)CO` [PG(p29:1)], the “collision cross section (N2)” value ([2]; [M-H]-) is reported as 252.2 Å².

With `CCCC/C=C\CCCCCCCC(=O)O[C@H](CO/C=C\CCCCCCCCCCCCCC)COP(=O)(O)OC[C@@H](O)CO` [PG(p30:1)] the “collision cross section (N2)” value ([2]; [M-H]-) was 255.3 Å².

For `CCCC/C=C\CCCCCCCC(=O)O[C@H](CO/C=C\CCCCCCCCCCCCCCCC)COP(=O)(O)OC[C@@H](O)CO` [PG(p32:1)], the “collision cross section (N2)” value ([2]; [M-H]-) was 262.1 Å².

In the case of `CCCC/C=C\C/C=C\CCCCCCCC(=O)O[C@H](CO/C=C\CCCCCCCCCCCCCC)COP(=O)(O)OC[C@@H](O)CO` [PG(p33:2)], the “collision cross section (N2)” value ([2]; [M-H]-) is reported as 263.4 Å².

With `O=C1C=C2C(=CCOC2O)O1` (configuration not stated) [Patulin] the “collision cross section (N2)” value ([1]; [M+H3C2O2]-) was 142 Å².

In the case of `C=C(C)C(=O)/C(=C/C(=O)O)OC` [Penicillic acid], the “collision cross section (N2)” value ([1]; [M+H]+) is reported as 131 Å².

For `C[C@H]1CCC[C@H](O)CCC/C=C/c2cc(O)cc(O)c2C(=O)O1` [alpha-zearalenol], the “collision cross section (N2)” value ([1]; [M-H]-) was 173 Å².
